From patent publication US20250283049A1, “AGENT FOR CULTURING ORGANOID IN ABSENCE OF EXTRACELLULAR MATRIX” (KEIO UNIVERSITY, priority 2022, published 2025)

Assays:
Format in all cases: cell-based
AXIN2 gene = AXIN2 gene expression by quantitative real-time PCR in human large intestine-derived organoids; conditions: absence of Matrigel; Lats-IN 10 μM
Experimental: Human small intestine-derived organoids and human large intestine-derived organoids were cultured in the absence or presence of Matrigel (registered trademark) and in the absence or presence of Lats-IN (final concentration: 10 μM), and the expression level of the AXIN2 gene, whose expression is regulated by Wnt, was examined by quantitative real-time PCR.
FIG. 16 presents graphs showing the results of quantitative real-time PCR.

[1] = tested on: human liver cell organoids; assay: Culturing liver cell organoids in absence of Matrigel; number of viable cells (CellTiter-Glo 3D); conditions: concentration not given
Experimental: Human liver cell organoids, established from primary human liver cells, were supplemented with TrypLE Express (Thermo Fisher Scientific) and incubated at 37° C. for 5 minutes to dissociate them into single cells.
The cells were then collected and suspended in proliferation medium separately supplemented with 2, 5, 10, 20, or 50 μM TDI-011536 (CAS No. 2687970-96-1), and […] seeded into an ultra-low attachment 96-well plate at 2,000 cells/well. The preferred seeding density is 2,000 to 4,000 cells/well. In addition, cells in proliferation medium supplemented with no TDI-011536 were prepared as a control.
The proliferation medium was a medium consisting of a basal medium (Advanced DMEM/F-12 medium, 10 mM HEPES, 2 mM GlutaMAX, 100 U penicillin, 100 μg/mL streptomycin) supplemented with 10% afamin-Wnt-3A conditioned medium, 2% R-spondin 1 conditioned medium, 2% Noggin conditioned medium, and 20 ng/ml Oncostatin M.
On day 6 after seeding, the number of viable cells in the human liver cell organoids was measured using a commercially available kit (product name “CellTiter-Glo 3D,” Promega Corporation).

[2] = tested on: stomach-derived organoids, biliary tract-derived organoids, and mammary gland-derived organoids; assay: Culture of organoids derived from various organs in absence of Matrigel; conditions: Lats-IN 10 μM
Experimental: It was examined whether organoids derived from various organs could be cultured in the absence of Matrigel (registered trademark) and in the absence or presence of Lats-IN (final concentration: 10 μM).
FIG. 11 presents representative photographs showing the results of culturing stomach-derived organoids, biliary tract-derived organoids, and mammary gland-derived organoids in the absence of Matrigel (registered trademark) and Lats-IN (Ctrl), or in the absence of Matrigel (registered trademark) and in the presence of Lats-IN (Lats-IN). The scale bar is 100 μm.

[3] = tested on: phosphorylated YAP (Ser127); assay: Examination of phosphorylation of YAP by Western blotting in human small intestine-derived organoids; conditions: 10 μM; in both presence and absence of Matrigel; compared to when Lats-IN is absent
Experimental: Human small intestine-derived organoids were cultured in the absence and presence of Matrigel (registered trademark) and in the absence and presence of a LATS kinase inhibitor (final concentration: 10 μM), and phosphorylation of YAP was confirmed by Western blotting.
In FIG. 4, “pYAP” indicates phosphorylated YAP, and “YAP” indicates total YAP (the sum of phosphorylated YAP and non-phosphorylated YAP). The antibody against phosphorylated YAP used was phospho-YAP (Ser127) (#4911, Cell Signaling Technology, Inc.). The antibody against total YAP used was total-YAP (#14074, Cell Signaling Technology, Inc.).

[4] = tested on: phosphorylated ERK (Thr202/Tyr204); assay: ERK phosphorylation by Western blotting in human small intestine-derived organoids; conditions: absence of Matrigel; Lats-IN 10 μM
Experimental: Next, human small intestine-derived organoids were cultured in the absence or presence of Matrigel (registered trademark) and in the absence or presence of Lats-IN (final concentration: 10 μM), and ERK phosphorylated by EGF signaling was detected by Western blotting.
FIG. 17 presents graphs showing the results of Western blotting. In FIG. 17, “pERK” represents phosphorylated ERK, and “total ERK” represents total ERK (the sum of phosphorylated ERK and non-phosphorylated ERK). In addition, “pYAP” represents phosphorylated YAP, and “total YAP” represents total YAP (the sum of phosphorylated YAP and non-phosphorylated YAP). The antibody against phosphorylated ERK used was phospho-ERK (Thr202/Tyr204) (#4370, Cell Signaling Technology, Inc.). The antibody against total ERK used was total-ERK (#4695, Cell Signaling Technology, Inc.). The antibody against phosphorylated YAP used was phospho-YAP (Ser127) (#4911, Cell Signaling Technology, Inc.). The antibody against total YAP used was total-YAP (#14074, Cell Signaling Technology, Inc.).

[5] = tested on: human small intestine-derived organoid; assay: Culture of organoids in presence of Matrigel and LATS kinase inhibitor; cell number by ATP (CellTiter-Glo 3D); conditions: presence of Matrigel; 10 mM Lats-IN as printed; 7 days of culture; vs control without Lats-IN
Experimental: A human small intestine-derived organoid and a human large intestine-derived organoid were cultured in the presence of an inhibitor of LATS1 kinase and LATS2 kinase, Lats-IN-1 (CAS No. 1424635-83-5, hereinafter sometimes referred to as “Lats-IN” and also referred to as “TRULI”), and their dynamics were observed.
The human small intestine-derived organoid and the human large intestine-derived organoid used were those established from tissues derived from patients with gastrointestinal tumors who provided informed consent, in accordance with an ethical research plan approved by the Ethics Committee of the Keio University School of Medicine.
Each organoid was dissociated into single cells using TrypLE Express (Thermo Fisher Scientific Inc.) to obtain a cell suspension. […]
The cell proliferation was measured by measuring adenosine triphosphate (ATP) using a commercially available kit (product name “CellTiter-Glo 3D,” Promega Corporation).
The upper left panel of FIG. 2 is a photograph of a control (Ctrl) human small intestine-derived organoid cultured in the absence of Lats-IN, and the upper center panel of FIG. 2 is a photograph of a human small intestine-derived organoid cultured in the presence of Lats-IN. […] The vertical axis of the graph represents luminescence intensity (relative value) indicating the amount of ATP present.

SMILES: O=C(N=c1sccn1Cc1ccccc1)c1c[nH]c2ncccc12 [Lats-IN]
- expression level of AXIN2 (AXIN2 gene): increased to a level equivalent to that in the presence of Matrigel
- increase in number of viable cells [1]: about three-fold
- cell proliferation (photographs) [2]: activated
- phosphorylation of YAP [3]: significantly suppressed
- ERK phosphorylation [4]: increased to a level equivalent to that in the presence of Matrigel
- cell proliferation (cell number per well, ATP luminescence) [5]: significantly activated
